The source made the active and inactive calls.
Tests used:
[1] = biological target: T1, Bcl-2-related protein A1 (Mus musculus, UniProt Q07440); experiment: Bfl-1 inhibitors blocking BH3 peptide binding, confirmation, biochemical, TR-FRET, mouse Bfl-1 (AID 621);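 also: TR-FRET binding of GST-Bfl-1 to FITC-labelled Bid peptide via terbium antibody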
T1 sequence (Q07440 whole entry): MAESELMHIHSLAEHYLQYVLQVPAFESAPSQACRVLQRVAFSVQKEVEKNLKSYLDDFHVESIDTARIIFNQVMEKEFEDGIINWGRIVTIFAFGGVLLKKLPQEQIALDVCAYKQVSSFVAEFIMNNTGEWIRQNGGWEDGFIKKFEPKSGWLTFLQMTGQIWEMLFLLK

[2] = biological target: T1, Bcl-2-related protein A1; experiment: Bfl-1 binding inhibitors, SAR follow-up, biochemical, fluorescence polarization (AID 1070)
[3] = biological target: Glyceraldehyde-3-phosphate dehydrogenase (Homo sapiens, UniProt P04406)
Chain of Glyceraldehyde-3-phosphate dehydrogenase (P04406 whole entry): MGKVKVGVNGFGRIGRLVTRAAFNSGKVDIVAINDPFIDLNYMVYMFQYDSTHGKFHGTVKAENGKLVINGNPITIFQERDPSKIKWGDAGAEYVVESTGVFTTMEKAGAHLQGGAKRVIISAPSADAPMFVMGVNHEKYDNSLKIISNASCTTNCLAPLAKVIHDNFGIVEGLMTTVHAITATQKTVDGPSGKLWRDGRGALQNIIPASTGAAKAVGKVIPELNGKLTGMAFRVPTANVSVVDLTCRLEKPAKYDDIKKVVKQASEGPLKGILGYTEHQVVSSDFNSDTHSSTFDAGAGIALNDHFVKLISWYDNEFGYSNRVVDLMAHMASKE

[4] = HEp-2 cell cytotoxicity, dose response, cytotoxicity control for RSV inhibitor project, HTS (AID 2410); format: functional; settings: human respiratory syncytial virus
[5] = cells
[6] = biological target: T2, Heat shock factor protein 1 (Mus musculus, UniProt P38532); experiment: inhibition of MG132-induced HSE-luciferase signal, confirmation, cell-based, NIH3T3, luminescence, dose retest (AID 2382); format: functional;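 also: NIH3T3 fibroblasts with HSF1-driven luciferase reporter stressed by proteasome inhibitor MG132; luminescence from HSF1-driven luciferase expression after 8 hours of MG132 stress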
T2 sequence (P38532 whole entry): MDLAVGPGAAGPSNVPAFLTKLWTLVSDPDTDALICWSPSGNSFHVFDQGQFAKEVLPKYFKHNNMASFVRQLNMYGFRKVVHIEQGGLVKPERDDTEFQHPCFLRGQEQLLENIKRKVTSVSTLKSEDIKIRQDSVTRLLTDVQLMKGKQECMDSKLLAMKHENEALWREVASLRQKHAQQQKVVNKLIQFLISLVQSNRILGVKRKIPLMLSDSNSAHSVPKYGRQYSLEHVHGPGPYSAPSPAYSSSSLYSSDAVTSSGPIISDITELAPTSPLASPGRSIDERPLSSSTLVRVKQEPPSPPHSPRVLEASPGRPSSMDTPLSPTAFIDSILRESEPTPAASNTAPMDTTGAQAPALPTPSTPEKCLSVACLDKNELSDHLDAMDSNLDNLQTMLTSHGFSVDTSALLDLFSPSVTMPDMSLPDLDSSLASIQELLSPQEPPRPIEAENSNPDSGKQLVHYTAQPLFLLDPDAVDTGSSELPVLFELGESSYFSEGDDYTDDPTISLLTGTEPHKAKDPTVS

[7] = inhibitors of intracellular T. cruzi replication, confirmation, NIH3T3 host cells, beta-gal luminescence (AID 2044); format: functional, cell-based;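 also: intracellular parasites grown in NIH/3T3 mouse fibroblasts as host cells; luminescent beta-galactosidase reporter signal from transgenic T. cruzi replicating inside host cells; inhibitors lower the luminescence signal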
[8] = cytotoxicity toward NIH3T3 fibroblasts, dose response, counter-screen, cell-based, ATP luminescence, mouse fibroblasts (AID 2010); format: functional;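 also: cells exposed to compound for about 90 hours before reading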
[9] = A Cell Based Secondary Assay To Explore Cytotoxicity of Compounds that Sensitize Mycobacterium Tuberculosis to Beta-Lactam Antibiotics.; format: functional
[10] = biological target: Luciferin 4-monooxygenase (Photinus pyralis, UniProt P08659); experiment: Counter Screen for Luciferase-based Assay Positives. [Related pubchem assays: 620, 618, 411 ]
Chain of Luciferin 4-monooxygenase (P08659 whole entry): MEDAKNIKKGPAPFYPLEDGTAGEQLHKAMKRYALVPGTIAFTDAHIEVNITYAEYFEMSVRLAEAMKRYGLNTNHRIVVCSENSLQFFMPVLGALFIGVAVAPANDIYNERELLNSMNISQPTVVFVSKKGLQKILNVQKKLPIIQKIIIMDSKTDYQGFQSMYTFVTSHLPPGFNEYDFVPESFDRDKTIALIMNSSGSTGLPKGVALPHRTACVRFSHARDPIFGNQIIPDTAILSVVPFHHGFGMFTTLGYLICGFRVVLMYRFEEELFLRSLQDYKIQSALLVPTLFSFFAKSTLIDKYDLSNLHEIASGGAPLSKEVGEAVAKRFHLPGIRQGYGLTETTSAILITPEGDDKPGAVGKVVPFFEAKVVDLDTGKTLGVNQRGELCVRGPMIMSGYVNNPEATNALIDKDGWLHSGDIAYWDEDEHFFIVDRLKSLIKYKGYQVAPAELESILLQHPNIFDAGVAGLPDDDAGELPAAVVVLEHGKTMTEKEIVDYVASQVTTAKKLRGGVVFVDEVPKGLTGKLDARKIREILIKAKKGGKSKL

[11] = biological target: FAD-linked sulfhydryl oxidase ALR (Homo sapiens, UniProt P55789); experiment: inhibitors of human ALR sulfhydryl oxidase, dose response, biochemical, H2O2 detection, luminescence, cherry-pick (AID 493248)
Chain of FAD-linked sulfhydryl oxidase ALR (P55789 whole entry): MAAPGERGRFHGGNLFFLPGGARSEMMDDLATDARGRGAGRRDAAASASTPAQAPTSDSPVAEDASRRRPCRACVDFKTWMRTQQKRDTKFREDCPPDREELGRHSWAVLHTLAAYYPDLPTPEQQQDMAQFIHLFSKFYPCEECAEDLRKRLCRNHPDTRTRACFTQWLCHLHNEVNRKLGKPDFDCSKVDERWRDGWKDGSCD

[12] = tested on: HT-1080; experiment: cytotoxicity in HT1080 fibrosarcoma cells, cell-based, fluorescence readout (AID 620); format: functional; settings: Homo sapiens
[13] = biological target: T3, Sentrin-specific protease 7 (Homo sapiens, UniProt Q9BQF6); format: functional;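 also: Luminescence-based dose-response confirmation of ultra-high-throughput screening hits, measuring inhibition of SENP7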
T3 sequence (Q9BQF6 whole entry): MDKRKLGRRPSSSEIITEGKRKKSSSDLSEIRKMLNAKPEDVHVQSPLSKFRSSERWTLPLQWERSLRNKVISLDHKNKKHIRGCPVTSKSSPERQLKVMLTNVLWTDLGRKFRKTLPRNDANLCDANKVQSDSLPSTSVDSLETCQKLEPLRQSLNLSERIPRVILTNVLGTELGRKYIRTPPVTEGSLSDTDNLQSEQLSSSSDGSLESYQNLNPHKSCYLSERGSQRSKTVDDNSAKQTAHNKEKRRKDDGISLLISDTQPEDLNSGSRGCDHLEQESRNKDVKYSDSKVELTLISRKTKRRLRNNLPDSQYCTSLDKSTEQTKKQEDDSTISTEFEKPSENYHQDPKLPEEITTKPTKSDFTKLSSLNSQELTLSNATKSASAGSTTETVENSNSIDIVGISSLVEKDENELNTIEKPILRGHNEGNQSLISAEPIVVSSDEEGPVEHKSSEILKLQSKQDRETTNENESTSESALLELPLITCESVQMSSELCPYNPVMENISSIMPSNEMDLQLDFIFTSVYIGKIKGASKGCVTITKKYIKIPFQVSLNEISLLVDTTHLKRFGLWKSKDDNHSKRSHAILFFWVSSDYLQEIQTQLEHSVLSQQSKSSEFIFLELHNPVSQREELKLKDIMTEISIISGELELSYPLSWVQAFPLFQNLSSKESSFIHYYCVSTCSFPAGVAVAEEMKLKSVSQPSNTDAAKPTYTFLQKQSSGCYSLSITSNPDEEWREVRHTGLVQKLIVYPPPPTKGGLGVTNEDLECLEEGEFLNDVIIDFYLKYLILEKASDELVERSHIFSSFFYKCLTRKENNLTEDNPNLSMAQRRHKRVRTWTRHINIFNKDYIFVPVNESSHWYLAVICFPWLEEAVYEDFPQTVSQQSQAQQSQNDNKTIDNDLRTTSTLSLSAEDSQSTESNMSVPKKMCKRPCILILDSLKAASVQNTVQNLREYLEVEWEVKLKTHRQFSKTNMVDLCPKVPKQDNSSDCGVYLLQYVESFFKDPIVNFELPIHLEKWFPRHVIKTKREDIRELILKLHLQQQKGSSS

[14] = biological target: T4, Sentrin-specific protease 6 (Homo sapiens, UniProt Q9GZR1); format: functional;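 also: Luminescence-based dose-response confirmatory assay of SENP6 inhibition, following up an ultra-high-throughput screen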
T4 sequence (Q9GZR1 whole entry): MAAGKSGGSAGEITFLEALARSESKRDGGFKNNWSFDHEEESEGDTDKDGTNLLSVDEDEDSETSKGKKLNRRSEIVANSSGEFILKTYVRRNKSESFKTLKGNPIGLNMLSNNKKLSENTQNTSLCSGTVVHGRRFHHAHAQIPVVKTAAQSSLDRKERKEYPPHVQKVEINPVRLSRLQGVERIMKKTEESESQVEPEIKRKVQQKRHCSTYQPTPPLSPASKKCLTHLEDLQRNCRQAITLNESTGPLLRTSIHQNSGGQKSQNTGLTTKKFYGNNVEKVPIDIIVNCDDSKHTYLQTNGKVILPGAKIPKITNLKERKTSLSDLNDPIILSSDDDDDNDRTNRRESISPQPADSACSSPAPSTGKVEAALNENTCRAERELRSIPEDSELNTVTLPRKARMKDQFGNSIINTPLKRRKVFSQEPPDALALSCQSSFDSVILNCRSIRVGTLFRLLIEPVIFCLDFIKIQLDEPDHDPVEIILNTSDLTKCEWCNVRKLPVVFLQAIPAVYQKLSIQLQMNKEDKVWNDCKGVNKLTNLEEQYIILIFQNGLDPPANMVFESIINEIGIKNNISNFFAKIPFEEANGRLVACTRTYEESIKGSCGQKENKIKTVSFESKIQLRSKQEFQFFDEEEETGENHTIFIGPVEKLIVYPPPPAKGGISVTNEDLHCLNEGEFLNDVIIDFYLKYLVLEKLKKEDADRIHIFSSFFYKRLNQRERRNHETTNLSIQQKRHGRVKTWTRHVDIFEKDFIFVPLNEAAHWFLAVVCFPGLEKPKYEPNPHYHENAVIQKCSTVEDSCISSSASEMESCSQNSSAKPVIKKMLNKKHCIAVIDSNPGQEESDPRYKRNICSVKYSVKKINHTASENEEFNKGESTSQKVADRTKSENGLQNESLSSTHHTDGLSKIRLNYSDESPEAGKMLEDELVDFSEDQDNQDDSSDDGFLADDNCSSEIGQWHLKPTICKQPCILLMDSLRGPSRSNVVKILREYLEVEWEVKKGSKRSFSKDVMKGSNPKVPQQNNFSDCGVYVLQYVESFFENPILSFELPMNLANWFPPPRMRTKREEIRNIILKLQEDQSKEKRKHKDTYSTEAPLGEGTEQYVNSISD

[15] = biological target: T5, Caspase-3 (Homo sapiens, UniProt P42574); format: functional;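 also: Dose-response selectivity test against caspase-3 for candidate inhibitors of sentrin-specific proteases (SENPs)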
T5 sequence (P42574 whole entry): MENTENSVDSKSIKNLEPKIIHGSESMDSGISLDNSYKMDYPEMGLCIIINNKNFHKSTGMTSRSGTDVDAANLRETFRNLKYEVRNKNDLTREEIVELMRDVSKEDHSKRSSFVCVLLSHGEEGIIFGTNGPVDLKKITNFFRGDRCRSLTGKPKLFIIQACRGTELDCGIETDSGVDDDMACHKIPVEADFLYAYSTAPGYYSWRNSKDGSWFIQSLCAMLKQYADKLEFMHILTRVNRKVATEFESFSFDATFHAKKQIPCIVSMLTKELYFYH

[16] = biological target: T6, Sentrin-specific protease 8 (Homo sapiens, UniProt Q96LD8); format: functional;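 also: luminescence read-out of SENP8 inhibition, dose-response confirmation following an ultra-high-throughput screen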
T6 sequence (Q96LD8 whole entry): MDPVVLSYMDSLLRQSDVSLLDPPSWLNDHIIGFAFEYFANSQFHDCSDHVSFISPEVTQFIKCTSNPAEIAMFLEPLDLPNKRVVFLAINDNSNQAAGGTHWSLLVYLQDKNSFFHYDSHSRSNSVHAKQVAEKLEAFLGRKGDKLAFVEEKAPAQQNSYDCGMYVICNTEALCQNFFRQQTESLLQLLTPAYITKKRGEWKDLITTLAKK

[17] = biological target: T7, Protein skinhead-1 (Caenorhabditis elegans, UniProt P34707); format: functional
T7 sequence (P34707 whole entry): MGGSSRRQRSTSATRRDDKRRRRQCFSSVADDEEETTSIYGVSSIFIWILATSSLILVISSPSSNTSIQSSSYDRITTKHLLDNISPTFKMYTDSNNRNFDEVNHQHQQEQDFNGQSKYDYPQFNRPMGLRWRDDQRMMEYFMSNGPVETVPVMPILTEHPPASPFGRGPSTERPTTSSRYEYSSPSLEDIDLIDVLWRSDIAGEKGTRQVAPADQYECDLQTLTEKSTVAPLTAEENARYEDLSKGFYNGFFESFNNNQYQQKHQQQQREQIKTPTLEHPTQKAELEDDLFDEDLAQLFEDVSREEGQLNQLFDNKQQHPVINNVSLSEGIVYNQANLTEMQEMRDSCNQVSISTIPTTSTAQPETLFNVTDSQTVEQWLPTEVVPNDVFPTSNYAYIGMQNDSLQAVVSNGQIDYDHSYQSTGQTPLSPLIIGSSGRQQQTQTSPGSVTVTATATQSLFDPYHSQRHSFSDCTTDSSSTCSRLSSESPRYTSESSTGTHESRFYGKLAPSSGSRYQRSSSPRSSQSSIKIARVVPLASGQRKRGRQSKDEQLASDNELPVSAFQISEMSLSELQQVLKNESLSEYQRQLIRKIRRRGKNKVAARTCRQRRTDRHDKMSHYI

[18] = tested on: HeLa; experiment: HeLa cell cytotoxicity, dose response, cytotoxicity control, 24 h, cherry-picked samples (AID 504726); format: functional, cell-based; settings: Homo sapiens;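 also: potency for cytotoxicity as loss of luminescence signal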
[19] = THP-1 cell cytotoxicity, dose response, cytotoxicity control for non-replicating M. tuberculosis project (AID 489025); format: functional
[20] = cells; format: functional
[21] = Vero E6 cell cytotoxicity, dose response, cytotoxicity control for non-replicating M. tuberculosis project, secondary assay (AID 492998); format: functional, VeroE6; settings: Vero C1008

Which IC50 [1] does the source give for `CCN1CCN(C2=C(Cl)C(=O)N(c3ccc(Cl)c(Cl)c3)C2=O)CC1` here?
Its IC50 is 0.97 µM (active).

What about the IC50 [2] of the same compound?
The IC50 was 1.67 µM (active).

And the IC50 [3]?
Its IC50 is > 100 µM (not active).

What does the source list for `CC(Nc1ccccc1N1CCCCC1)C(=O)N1CCc2ccccc21` (stereo unspecified)?
CC50 [4]: > 50 µM (active); IC50 [5]: 15.4 µM (active)

What does the source list for `O=C(C1=C[C@H](c2ccc(Br)cc2)C[C@H](OCCCCO)O1)N1CCN(Cc2ccc3c(c2)OCO3)CC1`?
EC50 [6]: > 195 µM (not active); EC50 [7]: 0.346 µM (active); EC50 [8]: > 60 µM (not active); CC50 [9]: > 40 µM (active)

Which results are given for `Clc1c(CSc2nc3ccccc3o2)nc2ccccn12`?
EC50 [10]: 9.33 µM (active); AC50 [11]: 7.37 µM (active); EC50 [12]: > 50 µM (not active)

Which results are given for `Cc1ccc(-n2nnc(-c3cccnc3Cl)n2)cc1`?
IC50 [1]: > 100 µM (not active); IC50 [2]: > 100 µM (not active); IC50 [13]: 3.18 µM (active); IC50 [14]: 4.03 µM (active); IC50 [15]: 9.03 µM (active); IC50 [16]: > 100 µM (inactive)

Which results are given for `COc1cc(/C=C/c2cc(C(=O)O)c3ccccc3n2)ccc1OC(F)F`?
CC50 [4]: 35.7 µM (active); IC50 [5]: 28.6 µM (active)

Which CC50 [9] does the source give for `Cc1ccc(-c2nnc(O)c(O)c2N=Nc2ccccc2)cc1` here?
Its CC50 is > 40 µM (active).

What does the source list for `c1ccc(-c2nc3cc4ccccc4cc3[nH]2)nc1`?
EC50 [10]: 6.86 µM (active); EC50 [12]: 14.6 µM (active); IC50 [17]: 9.19 µM (active)

Which CC50 [4] does the source give for `Cc1c(C(=O)N2CCN(S(=O)(=O)c3ccccc3F)CC2)oc2c(Cl)cccc12` here?
Its CC50 is 31.6 µM (active).

What about the IC50 [5] of the same compound?
The IC50 was > 50 µM (active).

What about the IC50 [17] of the same compound?
Its IC50 is > 100 µM (inactive).

Which CC50 [4] does the source give for `COc1ccccc1CNC(=O)c1ccc(SC)cc1OC` here?
The CC50 was > 50 µM (active).

What about the CC50 [9] of the same compound?
Its CC50 is > 40 µM (active).

Which AC50 [18] does the source give for `Cc1cc(NC(=O)CCC(=O)N(CCC(C)C)C(C(=O)NC2CCCC2)c2cccnc2)no1` (stereo unspecified) here?
The AC50 was > 350 µM (inactive).

With `O=C(N/N=C\c1ccc([N+](=O)[O-])o1)c1cncc(Br)c1` as the compound, how does the CC50 [19] read?
Its CC50 is 27.4 µM (active).

What about the AC50 [18] of the same compound?
The AC50 was > 350 µM (inactive).

And the EC50 [7]?
Its EC50 is 0.389 µM (active).

And the IC50 [20]?
Its IC50 is 3.94 µM (active).

What about the EC50 [8] of the same compound?
Its EC50 is > 60 µM (not active).

What about the CC50 [21] of the same compound?
The CC50 was > 20 µM (active).
